Laboratory results as given in patent publication US10111847B2, “Compounds and methods for modulating vascular injury” (The Regents of the University of California, priority 2012, dated 2018).

Tests used:
Format in all cases: cell-based, human
VSMC = VSMC proliferation assay (Alamar Blue) in 10% serum; conditions: 100 nM; standard growth medium (10% serum); P<0.01
Excerpt: Primary cultures of human greater saphenous vein smooth muscle cells (hVSMC) are isolated from saphenous vein discarded at the time of bypass operation in an Institutional Review Board-approved protocol as described by Conte et al. “Regulation of vein graft hyperplasia by survivin, an inhibitor of apoptosis protein.” Arterioscler Thromb Vasc Biol. 2005; 25:2081-2087. VSMCs are maintained in Dulbecco's modified Eagle's medium (DMEM Low Glucose) (HyClone Laboratories Inc, Logan, Utah) containing 10% fetal bovine serum (FBS) (Invitrogen Life Technologies, Grand Island, N.Y.) and used between passages 2-5. […]
Cell proliferation assay is performed as described by Conte et al. Arterioscler Thromb Vasc Biol. 2005; 25:2081-2087. […] Fluorescence measurements (excitation 506 nm, emission 590 nm) are made on media aliquots; a standard curve is generated by correlating emission intensity with viable cell counts using Trypan Blue exclusion.
(§1) FIG. 1: RvD1 and RvD2 attenuate cell adhesion, proliferation, and migration responses of human VSMC in-vitro. […] Results are shown as relative percent inhibition, expressed as a percentage of the maximal adhesion for the agonist (n=6, results are mean±SEM, **P<0.01, *P<0.05, unpaired t-test). […] Results are expressed as percentage change in migration from unstimulated control (no PDGF). […]

VCAM-1 = experiment: TNF-α-stimulated VCAM-1 gene expression in VSMC by qRT-PCR; conditions: 100 nM; TNF-α 10 ng/ml 18 hours; P<0.01
Experimental: (§2) Cells are plated onto 6-well plates at 100% confluency in DMEM plus 10% FBS and allowed to attached overnight. Cells are then made quiescent by placing in serum-free media for 48-72 hours prior to start of experiments. Cells are treated with or without RvD1 or RvD2 at the indicated concentrations for one hour followed by co-incubation with cytokine (TNF-α 10 ng/ml) for up to 18 hours. In a separate set of experiments to examine the role of G-protein receptors, VSMCs are exposed to TNF-α and RvD2 (10 nM) as described above, in the presence or absence of pertussis toxin (PTX 100 ng/ml). Total RNA from rabbit sample or cells is isolated with PureLink RNA Mini kit (Ambion Life Technologies, Carlsbad, Calif.) with RNase-free DNase treatment according to manufacturer's protocol. One microgram of total RNA (from either VSMC or rabbit tissue) is used to generate cDNA using High Capacity cDNA Reverse Transcription Kit (Applied Biosystems, Foster City, Calif.) for subsequent RT-PCR reactions. Sybrgreen Amplified DNA is detected by incorporation SYBR Green (Qiagen, Germantown, Md.). Dissociation curve analyses are performed to confirm the specificity of the SYBR Green signal. Data is normalized to at least two reference genes. […]
(§3) FIG. 2: RvD1 and RvD2 reduce pro-inflammatory gene expression in VSMC. […] Expression of the cell adhesion molecules VCAM-1 (A) and ICAM-1 (B) was measured by qRT-PCR. […]

IL-1β-stimulated VSMC = experiment: Static monocyte (U937) adhesion assay, IL-1β-stimulated VSMC (RvD); conditions: IL-1β 1 nM 4 hours; 0.01-100 nM
Excerpt: (§4) Primary cultures of human greater saphenous vein smooth muscle cells (hVSMC) are isolated from saphenous vein discarded at the time of bypass operation in an Institutional Review Board-approved protocol as described by Conte et al. “Regulation of vein graft hyperplasia by survivin, an inhibitor of apoptosis protein.” Arterioscler Thromb Vasc Biol. 2005; 25:2081-2087. VSMCs are maintained in Dulbecco's modified Eagle's medium (DMEM Low Glucose) (HyClone Laboratories Inc, Logan, Utah) containing 10% fetal bovine serum (FBS) (Invitrogen Life Technologies, Grand Island, N.Y.) and used between passages 2-5. Endothelial cells were maintained in Medium 199 supplemented with EBSS (Hyclone Laboratories, Logan, Utah, USA) and Endothelial Cell Growth Supplement. Cells between passages 3-8 were used for the experiments.
(§5) RvD. […] Fluorescence measurements (excitation 494 nm, emission 517 nm) of bound monocytes are made with plate reader (Spectra Max M2, Molecular Devices, LLC, Sunnyvale, Calif.).
FIG. 6: RvD1 and RvD2 modulate cell adhesion response of human VSMC to IL-1β. […] Results are shown as relative percent inhibition, expressed as a percentage of the maximal adhesion for the agonist (n=6, results are mean±SEM, **P<0.01, *P<0.05, unpaired t-test).

TNF-α-stimulated VSMC = experiment: Static monocyte (U937) adhesion assay, TNF-α-stimulated VSMC (RvD); conditions: U937 monocytes; TNF-α 10 ng/ml 4 hours; peak inhibition at 10 nM
Excerpt: as §4, §5, §1

ICAM-1 = experiment: TNF-α-stimulated ICAM-1 gene expression in VSMC by qRT-PCR; conditions: 100 nM; TNF-α 10 ng/ml 18 hours; P<0.01
Experimental: as §2, §3

Row | Compound | inhibition of VSMC proliferation, maximum effect (VSMC) [%] | VCAM-1 expression, maximum % reduction (VCAM-1) [%] | inhibition of monocyte adhesion (U937) to IL-1β-stimulated VSMC (IL-1β-stimulated VSMC) | maximum % inhibition of monocyte adhesion (TNF-α-stimulated VSMC) [%] | ICAM-1 expression, maximum % reduction (ICAM-1) [%]
1 | CC/C=C\C[C@H](O)/C=C/C=C\C=C\C=C\[C@@H](O)[C@@H](O)C/C=C\CCC(=O)O [RvD1, Resolvin D1] | 59 | 69 | dose-dependent inhibition | 36 | 63
2 | CC/C=C\C[C@H](O)[C@H](O)/C=C/C=C/C=C\C=C\[C@@H](O)C/C=C\CCC(=O)O [RvD2, resolvin D2] | 63 | 76 | dose-dependent inhibition | 41 | 70
